Experiments:
[1] = DPPH free radical scavenging; conditions: mean ± SD (n = 3)
In short: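 Sample solutions at various concentrations mixed 1:1 with DPPH (0.04 mg/mL) and reacted 30 min at room temperature; absorbance read at 517 nm against ethanol blank, corrected for sample absorbance. Scavenging % calculated versus DPPH alone, triplicate measurements, IC50 derived.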

[2] = hydroxyl radical scavenging; conditions: mean ± SD (n = 3), read-out: OH IC50 Value
In short: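 Fenton system of H2O2 (0.03%), FeSO4 (2 mmol/L) and salicylic acid (10 mmol/L) with compound solutions (0.4–2.0 mg/mL), incubated 30 min at 37 °C. Absorbance read at 510 nm. % OH scavenging = [A0−(A1−A2)]/A0×100, with A2 a sample blank using ethanol in place of salicylic acid.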

STZ-diabetic mice = assay: Acute hypoglycemic assay in STZ-diabetic mice; format: in vivo; conditions: for hypoglycemic effect: STZ-diabetic animals, 30 mg/kg of bw, started from 3 h and persisted throughout the experiment; for highest anti-hyperglycemic effect: STZ-diabetic mice; for Blood glucose concentration / % Variation of glycemia: STZ-diabetics mice
Protocol: Type II diabetes mellitus was induced in mice by a single intraperitoneal injection of freshly prepared STZ (Sigma Aldrich) dissolved in 0.1M citrate buffer, pH 4.5, in a volume of 110 mg/kg of bw. After 7 days of STZ administration, blood glucose levels of each mouse were determined. Mice with blood glucose levels higher than 11 mM were considered diabetic and were included in the study.
STZ-induced diabetic mice and normal mice were placed in single cages with wire-net floors and deprived of food for 12 h before experimentation but allowed free access to tap water throughout. The compounds (at the doses of 10, 30, and 100 mg/kg of bw) were suspended in 0.05% Tween-80 in saline solution. Glibenclamide (10 mg/kg of bw) was suspended in the same vehicle. The target compounds were freshly prepared immediately before experimentation and administered by the intragastrical route at the doses of 10 ml/kg of bw. Control mice received only the vehicle (0.05% Tween-80 in saline solution) by the same route. Blood glucose levels were measured at 0, 1.5, 3, 5, 7, and 9 h after drugs administration.

AGEs formation = assay: In vitro inhibitory activity of AGEs formation (bovine serum albumin/glucose); format: biochemical; conditions: mean ± SD (n = 3)
In short: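 Bovine serum albumin (10 mg/mL) with 0.2 M glucose in 50 mM PBS, pH 7.4, plus 0.02% sodium azide, was mixed with compound solutions (0.5–1000 μg/mL in DMSO) and held 14 d at 37 °C. AGE fluorescence was read at ex 350/em 420 nm in triplicate. Inhibition was corrected with glucose-free blanks, and IC50 calculated.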

Row | SMILES | IC50 [1] [µM] | IC50 [2] [µM] | Blood glucose concentration (STZ-diabetic mice; 10 mg/kg of bw per os, 0h) [mM] | % Variation of glycemia (STZ-diabetic mice; 10 mg/kg of bw per os, 1.5h) | Blood glucose concentration (STZ-diabetic mice; 10 mg/kg of bw per os, 1.5h) [mM] | % Variation of glycemia (STZ-diabetic mice; 10 mg/kg of bw per os, 3h) | Blood glucose concentration (STZ-diabetic mice; 10 mg/kg of bw per os, 3h) [mM] | % Variation of glycemia (STZ-diabetic mice; 10 mg/kg of bw per os, 5h) | Blood glucose concentration (STZ-diabetic mice; 10 mg/kg of bw per os, 5h) [mM] | % Variation of glycemia (STZ-diabetic mice; 10 mg/kg of bw per os, 7h) | Blood glucose concentration (STZ-diabetic mice; 10 mg/kg of bw per os, 7h) [mM] | % Variation of glycemia (STZ-diabetic mice; 10 mg/kg of bw per os, 9h) | Blood glucose concentration (STZ-diabetic mice; 10 mg/kg of bw per os, 9h) [mM] | Blood glucose concentration (STZ-diabetic mice; 30 mg/kg of bw per os, 0h) [mM] | % Variation of glycemia (STZ-diabetic mice; 30 mg/kg of bw per os, 1.5h) | Blood glucose concentration (STZ-diabetic mice; 30 mg/kg of bw per os, 1.5h) [mM] | % Variation of glycemia (STZ-diabetic mice; 30 mg/kg of bw per os, 3h) | Blood glucose concentration (STZ-diabetic mice; 30 mg/kg of bw per os, 3h) [mM] | % Variation of glycemia (STZ-diabetic mice; 30 mg/kg of bw per os, 5h) | Blood glucose concentration (STZ-diabetic mice; 30 mg/kg of bw per os, 5h) [mM] | other results
1 | COc1ccc(-c2cc3c(O)cc(O)cc3oc2=O)cc1 [Compound 35, 5,7-Dihydroxy-3-(4-methoxyphenyl)-coumarin] | 155 ± 10.5 | 270 ± 41.6 | 20.5 ± 7.1 | (−36.10) % | 13.1 ± 6.4 | (−47.81) % | 10.7 ± 5.7 | (−72.68) % | 5.6 ± 3.1 | (−73.66) % | 5.4 ± 3.4 | (−72.20) % | 5.7 ± 3.1 | 21.6 ± 4.4 | (−44.44) % | 12.0 ± 3.7 | (−51.39) % | 10.5 ± 5.1 | (−70.83) % | 6.3 ± 4.3 | hypoglycemic effect (STZ-diabetic mice): > 50%; highest anti-hyperglycemic effect (STZ-diabetic mice; 10 mg/kg, at 7 h): ~73.66%; highest anti-hyperglycemic effect (STZ-diabetic mice; 30 mg/kg, at 9 h): ~74.54%; % Variation of glycemia (STZ-diabetic mice; 30 mg/kg of bw per os, 7h): (−73.61) %; Blood glucose concentration (STZ-diabetic mice; 30 mg/kg of bw per os, 7h): 5.7 ± 6.7 mM; % Variation of glycemia (STZ-diabetic mice; 30 mg/kg of bw per os, 9h): (−74.54) %; Blood glucose concentration (STZ-diabetic mice; 30 mg/kg of bw per os, 9h): 5.5 ± 5.2 mM; Blood glucose concentration (STZ-diabetic mice; 100 mg/kg of bw per os, 0h): 20.3 ± 4.4 mM; % Variation of glycemia (STZ-diabetic mice; 100 mg/kg of bw per os, 1.5h): (−25.62) %; Blood glucose concentration (STZ-diabetic mice; 100 mg/kg of bw per os, 1.5h): 15.1 ± 5.0 mM; % Variation of glycemia (STZ-diabetic mice; 100 mg/kg of bw per os, 3h): (−48.28) %; Blood glucose concentration (STZ-diabetic mice; 100 mg/kg of bw per os, 3h): 10.5 ± 4.9 mM; % Variation of glycemia (STZ-diabetic mice; 100 mg/kg of bw per os, 5h): (−64.53) %; Blood glucose concentration (STZ-diabetic mice; 100 mg/kg of bw per os, 5h): 7.2 ± 2.6 mM; % Variation of glycemia (STZ-diabetic mice; 100 mg/kg of bw per os, 7h): (−64.53) %; Blood glucose concentration (STZ-diabetic mice; 100 mg/kg of bw per os, 7h): 7.2 ± 3.9 mM; % Variation of glycemia (STZ-diabetic mice; 100 mg/kg of bw per os, 9h): (−68.47) %; Blood glucose concentration (STZ-diabetic mice; 100 mg/kg of bw per os, 9h): 6.4 ± 2.0 mM; IC50 (AGEs formation): 5.21 ± 0.07 µM
2 | Cc1ccc(-c2cc3c(O)cc(O)cc3oc2=O)cc1 [Compound 25, 5,7-Dihydroxy-3-(4-methylphenyl)-coumarin] | 603 ± 7.42 | > 1000 | 19.7 ± 6.1 | (−20.30) % | 15.7 ± 6.6 | (−24.37) % | 14.9 ± 6.5 | (−50.76) % | 9.7 ± 3.4 | (−64.97) % | 6.9 ± 3.9 | (−56.85) % | 8.5 ± 2.2 | 24.8 ± 4.9 | (−12.50) % | 21.7 ± 3.9 | (−36.23) % | 15.8 ± 4.5 | (−64.11) % | 8.9 ± 6.3 | % Variation of glycemia (STZ-diabetic mice; 30 mg/kg of bw per os, 7h): (−63.71) %; Blood glucose concentration (STZ-diabetic mice; 30 mg/kg of bw per os, 7h): 9.0 ± 4.8 mM; % Variation of glycemia (STZ-diabetic mice; 30 mg/kg of bw per os, 9h): (−64.11) %; Blood glucose concentration (STZ-diabetic mice; 30 mg/kg of bw per os, 9h): 8.9 ± 3.8 mM; Blood glucose concentration (STZ-diabetic mice; 100 mg/kg of bw per os, 0h): 23.0 ± 4.8 mM; % Variation of glycemia (STZ-diabetic mice; 100 mg/kg of bw per os, 1.5h): (−20.44) %; Blood glucose concentration (STZ-diabetic mice; 100 mg/kg of bw per os, 1.5h): 18.3 ± 3.5 mM; % Variation of glycemia (STZ-diabetic mice; 100 mg/kg of bw per os, 3h): (−25.36) %; Blood glucose concentration (STZ-diabetic mice; 100 mg/kg of bw per os, 3h): 17.2 ± 2.9 mM; % Variation of glycemia (STZ-diabetic mice; 100 mg/kg of bw per os, 5h): (−56.95) %; Blood glucose concentration (STZ-diabetic mice; 100 mg/kg of bw per os, 5h): 9.9 ± 2.7 mM; % Variation of glycemia (STZ-diabetic mice; 100 mg/kg of bw per os, 7h): (−64.78) %; Blood glucose concentration (STZ-diabetic mice; 100 mg/kg of bw per os, 7h): 8.1 ± 1.6 mM; % Variation of glycemia (STZ-diabetic mice; 100 mg/kg of bw per os, 9h): (−60.43) %; Blood glucose concentration (STZ-diabetic mice; 100 mg/kg of bw per os, 9h): 9.1 ± 2.3 mM; IC50 (AGEs formation): 45.8 ± 1.27 µM
3 | Cc1ccccc1-c1cc2ccc(O)cc2oc1=O [Compound 11, 7-Hydroxy-3-(2-methylphenyl)-coumarin] | 564.2 ± 5.2 | > 1000 | 24.9 ± 4.1 | (−17.27) % | 20.6 ± 5.9 | (−37.75) % | 15.5 ± 8.5 | (−48.59) % | 12.8 ± 10.4 | (−54.22) % | 11.4 ± 8.2 | (−52.21) % | 11.9 ± 8.5 | 25.3 ± 6.3 | (−20.95) % | 20.0 ± 6.3 | (−34.78) % | 16.5 ± 6.4 | (−55.41) % | 11.3 ± 4.0 | % Variation of glycemia (STZ-diabetic mice; 30 mg/kg of bw per os, 7h): (−62.40) %; Blood glucose concentration (STZ-diabetic mice; 30 mg/kg of bw per os, 7h): 9.5 ± 3.9 mM; % Variation of glycemia (STZ-diabetic mice; 30 mg/kg of bw per os, 9h): (−68.14) %; Blood glucose concentration (STZ-diabetic mice; 30 mg/kg of bw per os, 9h): 8.1 ± 4.2 mM; Blood glucose concentration (STZ-diabetic mice; 100 mg/kg of bw per os, 0h): 23.5 ± 5.4 mM; % Variation of glycemia (STZ-diabetic mice; 100 mg/kg of bw per os, 1.5h): (−21.88) %; Blood glucose concentration (STZ-diabetic mice; 100 mg/kg of bw per os, 1.5h): 18.3 ± 3.9 mM; % Variation of glycemia (STZ-diabetic mice; 100 mg/kg of bw per os, 3h): (−34.89) %; Blood glucose concentration (STZ-diabetic mice; 100 mg/kg of bw per os, 3h): 15.3 ± 3.9 mM; % Variation of glycemia (STZ-diabetic mice; 100 mg/kg of bw per os, 5h): (−52.76) %; Blood glucose concentration (STZ-diabetic mice; 100 mg/kg of bw per os, 5h): 11.1 ± 4.4 mM; % Variation of glycemia (STZ-diabetic mice; 100 mg/kg of bw per os, 7h): (−62.21) %; Blood glucose concentration (STZ-diabetic mice; 100 mg/kg of bw per os, 7h): 8.9 ± 2.8 mM; % Variation of glycemia (STZ-diabetic mice; 100 mg/kg of bw per os, 9h): (−65.27) %; Blood glucose concentration (STZ-diabetic mice; 100 mg/kg of bw per os, 9h): 8.2 ± 2.6 mM; IC50 (AGEs formation): > 1000 µM
4 | O=c1oc2ccc(O)cc2cc1-c1ccc(O)cc1 [Compound 17, 6-Hydroxy-3-(4-hydroxyphenyl)-coumarin] | 163 ± 7.13 | > 1000 | 26.9 ± 3.8 | (−8.92) % | 24.5 ± 3.0 | (−15.24) % | 22.8 ± 2.3 | (−38.29) % | 16.6 ± 5.8 | (−44.98) % | 14.8 ± 8.0 | (−45.35) % | 14.7 ± 9.5 | 23.3 ± 3.2 | (−23.18) % | 17.9 ± 5.7 | (−50.22) % | 11.6 ± 4.8 | (−64.38) % | 8.3 ± 3.8 | hypoglycemic effect (STZ-diabetic mice): > 50%; highest anti-hyperglycemic effect (STZ-diabetic mice; 30 mg/kg, at 9 h): ~70.39%; highest anti-hyperglycemic effect (STZ-diabetic mice; 100 mg/kg, at 7 h): ~70.51%; % Variation of glycemia (STZ-diabetic mice; 30 mg/kg of bw per os, 7h): (−68.24) %; Blood glucose concentration (STZ-diabetic mice; 30 mg/kg of bw per os, 7h): 7.4 ± 6.7 mM; % Variation of glycemia (STZ-diabetic mice; 30 mg/kg of bw per os, 9h): (−70.39) %; Blood glucose concentration (STZ-diabetic mice; 30 mg/kg of bw per os, 9h): 6.9 ± 7.9 mM; Blood glucose concentration (STZ-diabetic mice; 100 mg/kg of bw per os, 0h): 23.4 ± 5.7 mM; % Variation of glycemia (STZ-diabetic mice; 100 mg/kg of bw per os, 1.5h): (−19.66) %; Blood glucose concentration (STZ-diabetic mice; 100 mg/kg of bw per os, 1.5h): 18.8 ± 6.0 mM; % Variation of glycemia (STZ-diabetic mice; 100 mg/kg of bw per os, 3h): (−46.58) %; Blood glucose concentration (STZ-diabetic mice; 100 mg/kg of bw per os, 3h): 12.5 ± 4.7 mM; % Variation of glycemia (STZ-diabetic mice; 100 mg/kg of bw per os, 5h): (−67.52) %; Blood glucose concentration (STZ-diabetic mice; 100 mg/kg of bw per os, 5h): 7.6 ± 3.8 mM; % Variation of glycemia (STZ-diabetic mice; 100 mg/kg of bw per os, 7h): (−70.51) %; Blood glucose concentration (STZ-diabetic mice; 100 mg/kg of bw per os, 7h): 6.9 ± 2.6 mM; % Variation of glycemia (STZ-diabetic mice; 100 mg/kg of bw per os, 9h): (−65.81) %; Blood glucose concentration (STZ-diabetic mice; 100 mg/kg of bw per os, 9h): 8.0 ± 2.3 mM; IC50 (AGEs formation): 24.68 ± 0.12 µM
